Measurements as given in patent US9504251B2, “Pesticidal compositions and related methods” (Dow AgroSciences LLC, priority 2014, dated 2016).

Assays:
[1] = test system: Sweetpotato Whitefly-crawler (Bemisia tabaci) (WF) (BEMITA); test: Sweetpotato whitefly-crawler (WF) foliar spray assay on cotton plants; assay type: in vivo; conditions: 216 h, 200 ppm foliar spray on cotton plants, graded after 9 days, Abbott-corrected % control, disclosed compounds (TABLE 2), read-out: WF % Control (or Mortality) rating
Description: Foliar spray assay for WF was prepared as follows: Cotton plants (Gossypium hirsutum) grown in 3-inch pots, with 1 small (4-5 cm) true leaf, were used as test substrate. The plants were infested with 200-400 whitefly eggs 4-5 days prior to chemical application. Four pots with individual plants were used for each treatment. Tested compounds (2 mg) were dissolved in 1 mL of acetone solvent, forming stock solutions of 2000 ppm tested compound.
The stock solutions were diluted ten times with 0.025% TWEEN® 20 surfactant in H2O (diluents) to obtain the solution at 200 ppm tested compound. A hand-held aspirator-type sprayer was used for spraying the solution to both sides of cotton leaves until runoff. The control plants (solvent check) were sprayed with the diluent only containing 10% by volume of acetone solvent. Treated plants were held in a holding room for 9 days at approximately 25° C. and ambient relative humidity (RH) prior to grading. Evaluation was conducted by counting the number of live 3-4 nymph stage per plant under a microscope. Percent control was measured by using Abbott's correction formula (W. S. Abbott, “A Method of Computing the Effectiveness of an Insecticide,” J. Econ. Entomol. 18 (1925), pp. 265-267) as follows. Corrected % Control=100*(X−Y)/X
X=No. of live nymphs on solvent check plants and
Y=No. of live nymphs on treated plants.
(§1) The comparative compounds were tested for insecticidal activities against GPA and WF pests using the same test protocols described above for the disclosed compounds.

[2] = test system: Green Peach Aphid (Myzus persicae) (GPA) (MYZUPE); test: Green peach aphid (GPA) foliar spray bioassay on cabbage seedlings; assay type: in vivo; conditions: 72 h, 200 ppm foliar spray on cabbage seedlings, graded after three days, Abbott-corrected % control, disclosed compounds (TABLE 2), read-out: GPA % Control (or Mortality) rating
Description: Bioassay for GPA was prepared as follows: Cabbage seedlings grown in 3-inch pots, with 2-3 small (3-5 cm) true leaves, were used as test substrate. The seedlings were infested with 20-50 GPA (adult and nymph stages) one day prior to chemical application. Four pots with individual seedlings were used for each treatment. The tested compounds (2 mg) were dissolved in 2 mL of acetone/methanol (1:1) solvent to form stock solutions of 1000 ppm tested compound. The stock solutions were diluted five times with an aqueous solution containing 0.025% TWEEN® 20 surfactant, which is polyoxyethylene (20) sorbitan monolaurate, to obtain the solution at 200 ppm tested compound. A hand-held aspirator-type sprayer was used for spraying the solution to both sides of cabbage leaves until runoff. The control plants (solvent check) were sprayed with the diluent only containing 20% by volume of acetone/methanol (1:1) solvent. Treated plants were held in a holding room for three days at approximately 25° C. and ambient relative humidity (RH) prior to grading. Evaluation was conducted by counting the number of live aphids per plant under a microscope. Percent control was measured by using Abbott's correction formula (W. S. Abbott, “A Method of Computing the Effectiveness of an Insecticide,” J. Econ. Entomol. 18 (1925), pp. 265-267) as follows. Corrected % Control=100*(X−Y)/X
X=No. of live aphids on solvent check plants and
Y=No. of live aphids on treated plants
as §1

How did the mortality at 200 ppm [1] turn out when `O=C1c2cn(-c3cccnc3)nc2CCN1c1cccc(C(F)(F)F)n1` [Compound F46, 2-(3-Pyridyl)-5-[6-(trifluoromethyl)-2-pyridyl]-6,7-dihydropyrazolo[4,3-c]pyridin-4-one] was run?
Its mortality at 200 ppm is 0 to 80%.

And the mortality at 200 ppm [2]?
The mortality at 200 ppm was 80 to 100%.

Which results are given for `O=C1c2cn(-c3cccnc3)nc2CCN1c1cc(C(F)(F)F)ncn1` [Compound F48, 2-(3-Pyridyl)-5-[6-(trifluoromethyl)pyrimidin-4-yl]-6,7-dihydropyrazolo[4,3-c]pyridin-4-one]?
mortality at 200 ppm [1]: 0 to 80%; mortality at 200 ppm [2]: 80 to 100%

What does the source list for `O=C1c2cn(-c3cccnc3)nc2CCN1c1ccc(F)cn1` [Compound F49, 5-(5-Fluoro-2-pyridyl)-2-(3-pyridyl)-6,7-dihydropyrazolo[4,3-c]pyridin-4-one]?
mortality at 200 ppm [1]: 0 to 80%; mortality at 200 ppm [2]: 80 to 100%

How did the mortality at 200 ppm [1] turn out when `O=C1c2cn(-c3cccnc3)nc2CCN1Cc1ccc(C(F)(F)F)cc1` [Compound F50, 2-(3-Pyridyl)-5-[[4-(trifluoromethyl)phenyl]methyl]-6,7-dihydropyrazolo[4,3-c]pyridine-4-one] was run?
Its mortality at 200 ppm is 0 to 80%.

And the mortality at 200 ppm [2]?
The mortality at 200 ppm was 80 to 100%.

How did the mortality at 200 ppm [1] turn out when `CS(=O)(=O)CN1CCc2nn(-c3cccnc3)cc2C1=O` [Compound F51, 5-((methylsulfonyl)methyl)-2-(pyridin-3-yl)-6,7-dihydro-2H-pyrazolo[4,3-c]pyridin-4(5H)-one] was run?
The mortality at 200 ppm was 80 to 100%.

What about the mortality at 200 ppm [2] of the same molecule?
The mortality at 200 ppm was 80 to 100%.

For `O=C(CN1CCc2nn(-c3cccnc3)cc2C1=O)c1ccccc1` [Compound P18, 5-(2-oxo-2-phenylethyl)-2-(pyridin-3-yl)-2,5,6,7-tetrahydro-4H-pyrazolo[4,3-c]pyridin-4-one], which mortality at 200 ppm [1] is on record?
The mortality at 200 ppm was 80 to 100%.

What about the mortality at 200 ppm [2] of the same molecule?
The mortality at 200 ppm was 80 to 100%.
